Source: patent publication US9232792B2, “Method for promoting plant growth” (SUMITOMO CHEMICAL COMPANY, LIMITED, priority 2011, dated 2016)

Test system: Tobacco (Nicotiana benthamiana)
Assay: Test Example 4: reduction of low-temperature stress in hydroponics of tobacco
Format: in vivo
Conditions: 10 ppm in medium; 1.5±1.0° C. for 7 days, then 3 days at 22° C.
Method: Tobacco (Nicotiana benthamiana)
DMSO solutions containing each of the present compounds 1 to 4 at a concentration of 10,000 ppm were prepared. A 1/1,000 volume of each DMSO solution was added to a Murashige-and-Skoog medium (a medium containing 2.3 g of a mixture of salts for Murashige-and-Skoog medium (manufactured by Wako. Pure Chemical Industries, Ltd.), 200 mg of myoinositol (manufactured by Sigma-Aldrich), 2 mg of nicotinic acid (manufactured by Wako Pure Chemical Industries, Ltd.), 2 mg of pyridoxine hydrochloride (manufactured by Wako Pure Chemical Industries, Ltd.), 20 mg of thiamine hydrochloride (manufactured by Wako Pure Chemical Industries, Ltd.), 20 g of sucrose (manufactured by Wako Pure Chemical Industries, Ltd.), 1 g of MES (manufactured by DOJINDO LABORATORIES) in 1 L of water, adjusted to pH 5.8) at ½ concentration to obtain a medium containing the test compound at a concentration of 10 ppm. These media were used in the treated-group.
In a non-treated group, a medium obtained by adding a 1/1,000 volume of DMSO to a Murashige-and-Skoog medium at ½ concentration was used.
The seeds of tobacco (Nicotiana benthamiana) were sown on 5 μL of the medium, and incubated at 22° C. overnight. Thereto was added 45 μL of a medium containing each present compound at a concentration of 10 ppm, and cultivated for 7 days under the conditions of an illuminance of 4,000 lux, a temperature of 22° C. and a day length of 16 hours, thereby treating the seedlings of tobacco (Nicotiana benthamiana) with the test compound.
In the non-treated group, 45 μL of a medium obtained by adding a 1/1,000 volume of DMSO to a Murashige-and-Skoog medium at ½ concentration was added, and treated in the same manner as above.
The seedlings of tobacco (Nicotiana benthamiana) treated with the present compounds were cultivated for 7 days under the conditions of an illuminance of 2,000 lux, a temperature of 1.5±1.0° C., and a day length of 16 hours, thereby subjecting to low-temperature stress treatment.
The plants of tobacco (Nicotiana benthamiana) subjected to low-temperature stress treatment was cultivated for 3 days under the conditions of an illuminance of 4,000 lux, a temperature of 22° C., and a day length of 16 hours, and then the green leaf area of the plants was visually evaluated. Completely dead plant was scored as 0, the plant without low-temperature stress treatment was scored as 5, the green area was rated on a 6-point scale in ⅕ increments, and the score of not less than 1 was regarded as effective in reducing the stress. As a result of visual evaluation, the green leaf area of plants in the treated group, wherein the plants were treated with the present compound 1, 2, 3 or 4 was much larger than that in the non-treated group.

For `O=C(O)c1cc2cc(C(F)(F)F)ccc2s1` [The present compound 1, 5-(trifluoromethyl)benzo[b]thiophene-2-carboxylic acid], the “green leaf area of plants (visual evaluation) vs non-treated group” value was “much larger”.
